Experimental data as given in ChEMBL document CHEMBL1275554, “Caspofungin-resistant Candida tropicalis strains causing breakthrough fungemia in patients at high risk for hematologic malignancies” (Antimicrob Agents Chemother, 2008).
Values after ≈ are worked out from the molar mass of the structure shown. *1 amine or outer side, *2 acyl side, *3 side chain or, on linkers, in order; H or OH if unused. Where a SMILES comes first, the peptide text is derived from it. Bridges are numbered along the chain shown (N, C = ends). [ ]: non-standard residue; d: D form. The star is where a group is joined. hTyr(3S-OH,4S-OH,3'-OSO3H) = N[C@H](C(=O)O)[C@H](O)[C@@H](O)c1ccc(O)c(OS(=O)(=O)O)c1; pTerphenylCO(4''-OnC5H11) = CCCCCOc1ccc(-c2ccc(-c3ccc(C(=O)*)cc3)cc2)cc1; Orn(4R-OH,5R-OH) = O=C([C@H](C[C@@H](O)[C@@H](O)N[*:3])N[*:1])[*:2]; hTyr(3S-OH,4S-OH) = N[C@H](C(=O)O)[C@H](O)[C@@H](O)c1ccc(O)cc1; Pro(3S-OH,4S-Me) = C[C@H]1CN[C@H](C(=O)O)[C@H]1O; X1 = CCCCCOc1ccc(-c2cc(-c3ccc(C(=O)*)cc3)no2)cc1; Gln(3R-OH) = NC(=O)C[C@@H](O)[C@H](N)C(=O)O; Hyp = O=C(O)[C@@H]1C[C@@H](O)CN1

Experiments:
[1] = test system: Candida tropicalis; assay: Antifungal activity against Candida tropicalis ATCC 750; type: functional
[2] = test system: Candida tropicalis; assay: Antifungal activity against Candida tropicalis T7 blood stream isolate; type: functional
[3] = test system: Candida tropicalis; assay: Antifungal activity against Candida tropicalis T3 blood stream isolate harboring Fks1p FLTLS/PLRDP mutant protein; type: functional
[4] = test system: Candida tropicalis; assay: Antifungal activity against Candida tropicalis T19 blood stream isolate harboring Fks1p FLTLS/PLRDP mutant protein; type: functional
[5] = test system: Candida tropicalis; assay: Antifungal activity against Candida tropicalis T26 blood stream isolate harboring Fks1p LLTLSLRDP mutant protein; type: functional
[6] = test system: Candida albicans; assay: Antifungal activity against Candida albicans ATCC 90028; type: functional
[7] = test system: Candida albicans; assay: Antifungal activity against Candida albicans 205 harboring Fks1p FLTLPLRDP mutant protein; type: functional
[8] = Inhibition of Candida tropicalis ATCC 750 glucan synthase subunit FKS1p at monophasic kinetics
[9] = Inhibition of Candida tropicalis T7 blood stream isolate glucan synthase subunit FKS1p at monophasic kinetics
[10] = biological target: T1, 1,3-beta-D-glucan synthase subunit 1 (Candida tropicalis, UniProt B6S6L8, S80P); assay: Inhibition of Candida tropicalis T3 blood stream isolate glucan synthase subunit FKS1p with FLTLS/PLRDP mutant at monophasic kinetics
[11] = biological target: T1, 1,3-beta-D-glucan synthase subunit 1; assay: Inhibition of Candida tropicalis T3 blood stream isolate glucan synthase subunit FKS1p with FLTLS/PLRDP mutant at biphasic kinetics
[12] = biological target: T1, 1,3-beta-D-glucan synthase subunit 1; assay: Inhibition of Candida tropicalis T19 blood stream isolate glucan synthase subunit FKS1p with FLTLS/PLRDP mutant at monophasic kinetics
[13] = biological target: T1, 1,3-beta-D-glucan synthase subunit 1; assay: Inhibition of Candida tropicalis T19 blood stream isolate glucan synthase subunit FKS1p with FLTLS/PLRDP mutant at biphasic kinetics
[14] = biological target: 1,3-beta-D-glucan synthase subunit 1 (Candida tropicalis, UniProt B6S6L8, F76L); assay: Inhibition of Candida tropicalis T26 blood stream isolate glucan synthase subunit FKS1p with LLTLSLRDP mutant at monophasic kinetics
[15] = biological target: T2, Beta-1,3-glucan synthase (Candida albicans, UniProt O13383); assay: Inhibition of Candida albicans ATCC 90028 glucan synthase at monophasic kinetics
T2 sequence (O13383 whole entry): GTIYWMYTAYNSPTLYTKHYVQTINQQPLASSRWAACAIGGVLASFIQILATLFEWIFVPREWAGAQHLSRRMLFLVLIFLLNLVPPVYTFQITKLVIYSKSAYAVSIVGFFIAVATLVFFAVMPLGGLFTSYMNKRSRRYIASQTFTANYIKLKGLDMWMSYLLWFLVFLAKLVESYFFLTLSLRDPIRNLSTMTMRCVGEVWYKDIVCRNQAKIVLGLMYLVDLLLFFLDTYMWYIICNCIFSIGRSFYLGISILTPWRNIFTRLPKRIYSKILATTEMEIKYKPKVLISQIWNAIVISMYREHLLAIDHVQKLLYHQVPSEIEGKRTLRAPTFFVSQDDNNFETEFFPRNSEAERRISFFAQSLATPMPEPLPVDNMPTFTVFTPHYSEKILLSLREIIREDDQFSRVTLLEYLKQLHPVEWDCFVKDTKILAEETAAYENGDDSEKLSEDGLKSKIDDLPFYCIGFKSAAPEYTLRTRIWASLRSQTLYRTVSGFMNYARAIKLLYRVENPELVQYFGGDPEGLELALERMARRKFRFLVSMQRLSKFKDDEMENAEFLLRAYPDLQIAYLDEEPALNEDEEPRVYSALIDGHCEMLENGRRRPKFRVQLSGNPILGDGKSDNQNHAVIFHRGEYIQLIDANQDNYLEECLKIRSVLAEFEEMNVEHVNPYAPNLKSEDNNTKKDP

[16] = Inhibition of Candida albicans 205 glucan synthase subunit FKS1p FLTLPLRDP mutant at monophasic kinetics

T1 sequence (B6S6L8 entry or part of it S80P): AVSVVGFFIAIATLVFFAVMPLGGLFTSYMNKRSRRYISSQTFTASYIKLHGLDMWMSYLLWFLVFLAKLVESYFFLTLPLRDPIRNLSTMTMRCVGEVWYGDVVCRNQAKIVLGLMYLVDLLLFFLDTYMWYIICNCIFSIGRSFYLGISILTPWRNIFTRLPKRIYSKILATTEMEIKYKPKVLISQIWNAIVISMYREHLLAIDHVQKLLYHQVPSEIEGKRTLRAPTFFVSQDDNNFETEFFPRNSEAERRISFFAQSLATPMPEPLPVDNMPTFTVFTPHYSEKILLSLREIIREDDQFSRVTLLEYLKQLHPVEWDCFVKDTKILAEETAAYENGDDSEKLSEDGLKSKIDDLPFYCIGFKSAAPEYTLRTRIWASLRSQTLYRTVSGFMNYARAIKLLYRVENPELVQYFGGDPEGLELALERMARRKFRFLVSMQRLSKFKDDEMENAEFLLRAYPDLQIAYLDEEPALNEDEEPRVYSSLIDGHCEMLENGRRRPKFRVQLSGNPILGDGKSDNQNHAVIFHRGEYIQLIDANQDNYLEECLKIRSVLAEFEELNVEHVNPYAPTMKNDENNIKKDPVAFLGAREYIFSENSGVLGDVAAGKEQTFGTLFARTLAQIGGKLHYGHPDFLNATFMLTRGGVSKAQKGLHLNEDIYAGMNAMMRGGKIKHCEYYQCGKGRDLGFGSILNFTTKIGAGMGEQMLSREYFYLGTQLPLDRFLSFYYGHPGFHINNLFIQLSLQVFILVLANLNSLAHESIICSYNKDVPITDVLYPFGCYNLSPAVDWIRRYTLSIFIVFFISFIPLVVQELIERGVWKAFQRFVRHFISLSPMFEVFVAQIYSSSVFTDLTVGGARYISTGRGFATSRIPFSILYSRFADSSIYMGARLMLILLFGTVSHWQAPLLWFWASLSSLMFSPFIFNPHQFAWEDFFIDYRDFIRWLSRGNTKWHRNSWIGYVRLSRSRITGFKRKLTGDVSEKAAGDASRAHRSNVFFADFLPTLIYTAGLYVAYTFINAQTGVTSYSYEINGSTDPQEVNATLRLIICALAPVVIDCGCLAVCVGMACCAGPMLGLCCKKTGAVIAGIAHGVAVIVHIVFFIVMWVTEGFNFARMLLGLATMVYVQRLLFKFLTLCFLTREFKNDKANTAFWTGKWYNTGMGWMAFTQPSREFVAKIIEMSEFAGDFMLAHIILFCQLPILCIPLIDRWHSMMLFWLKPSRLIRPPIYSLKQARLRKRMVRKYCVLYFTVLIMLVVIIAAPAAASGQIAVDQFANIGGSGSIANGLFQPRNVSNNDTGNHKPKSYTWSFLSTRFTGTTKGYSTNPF
1,3-beta-D-glucan synthase subunit 1 (Candida tropicalis, UniProt B6S6L8, F76L), sequence (B6S6L8 entry or part of it F76L): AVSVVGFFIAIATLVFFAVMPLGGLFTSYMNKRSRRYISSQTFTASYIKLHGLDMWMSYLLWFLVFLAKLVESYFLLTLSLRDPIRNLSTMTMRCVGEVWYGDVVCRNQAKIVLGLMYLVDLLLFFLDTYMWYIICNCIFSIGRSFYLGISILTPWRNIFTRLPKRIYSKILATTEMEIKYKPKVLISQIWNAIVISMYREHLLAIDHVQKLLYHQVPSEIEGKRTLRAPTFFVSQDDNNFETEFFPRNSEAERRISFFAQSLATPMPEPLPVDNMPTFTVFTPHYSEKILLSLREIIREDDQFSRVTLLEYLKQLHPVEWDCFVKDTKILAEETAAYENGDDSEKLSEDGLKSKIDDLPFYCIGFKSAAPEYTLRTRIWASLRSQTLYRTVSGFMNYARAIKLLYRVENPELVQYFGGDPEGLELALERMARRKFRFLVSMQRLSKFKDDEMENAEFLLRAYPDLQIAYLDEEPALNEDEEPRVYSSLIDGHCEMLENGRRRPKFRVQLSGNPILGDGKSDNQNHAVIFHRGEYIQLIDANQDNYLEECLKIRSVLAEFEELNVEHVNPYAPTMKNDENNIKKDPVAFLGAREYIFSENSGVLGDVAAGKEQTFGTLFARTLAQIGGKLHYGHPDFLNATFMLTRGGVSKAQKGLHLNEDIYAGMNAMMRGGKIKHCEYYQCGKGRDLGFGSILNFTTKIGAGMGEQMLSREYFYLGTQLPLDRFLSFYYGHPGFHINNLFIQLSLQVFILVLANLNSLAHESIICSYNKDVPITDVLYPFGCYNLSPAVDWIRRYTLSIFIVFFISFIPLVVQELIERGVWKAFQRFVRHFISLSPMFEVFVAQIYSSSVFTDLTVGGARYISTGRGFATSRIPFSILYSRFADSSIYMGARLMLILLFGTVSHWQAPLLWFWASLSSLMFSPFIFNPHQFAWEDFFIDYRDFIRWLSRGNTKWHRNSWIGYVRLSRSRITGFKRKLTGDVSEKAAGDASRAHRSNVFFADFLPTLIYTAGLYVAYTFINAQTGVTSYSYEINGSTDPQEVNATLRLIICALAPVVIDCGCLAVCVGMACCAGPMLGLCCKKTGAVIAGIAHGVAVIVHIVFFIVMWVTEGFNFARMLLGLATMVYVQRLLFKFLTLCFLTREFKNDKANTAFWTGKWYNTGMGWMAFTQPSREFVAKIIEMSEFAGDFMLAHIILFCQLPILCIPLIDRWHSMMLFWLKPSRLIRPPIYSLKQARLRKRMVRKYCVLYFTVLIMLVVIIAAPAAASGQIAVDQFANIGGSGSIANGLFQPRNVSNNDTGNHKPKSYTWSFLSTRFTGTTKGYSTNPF

SMILES	MIC [1]	MIC [2]	MIC [3]	MIC [4]	MIC [5]	MIC [6]	MIC [7]	IC50 [8]	IC50 [9]	IC50 [10]	IC50 [11]	IC50 [12]	IC50 [13]	IC50 [14]	IC50 [15]	IC50 [16]
CCCCCOc1ccc(-c2ccc(-c3ccc(C(=O)N[C@H]4C[C@@H](O)[C@@H](O)NC(=O)[C@@H]5[C@@H](O)[C@@H](C)CN5C(=O)[C@H]([C@@H](C)O)NC(=O)[C@H]([C@H](O)[C@@H](O)c5ccc(O)cc5)NC(=O)[C@@H]5C[C@@H](O)CN5C(=O)[C@H]([C@@H](C)O)NC4=O)cc3)cc2)cc1 [ANIDULAFUNGIN] ({pTerphenylCO(4''-OnC5H11)}-[Orn(4R-OH,5R-OH)]T[Hyp][hTyr(3S-OH,4S-OH)]T[Pro(3S-OH,4S-Me)]; lactam 1-C)	0.06 µg/mL (≈ 0.0526 µM)	0.12 µg/mL (≈ 0.105 µM)	2 µg/mL (≈ 1.75 µM)	1 µg/mL (≈ 0.877 µM)	0.5 µg/mL (≈ 0.438 µM)	0.03 µg/mL (≈ 0.0263 µM)	2 µg/mL (≈ 1.75 µM)	0.004661 µg/mL (≈ 0.00409 µM)	0.002689 µg/mL (≈ 0.00236 µM)	0.281 nM	205 nM	0.503 nM	357 nM	27.7 nM	1.6 nM	0.989 µg/mL (≈ 0.867 µM)
CC[C@H](C)C[C@H](C)CCCCCCCCC(=O)N[C@H]1C[C@@H](O)[C@@H](NCCN)NC(=O)[C@@H]2[C@@H](O)CCN2C(=O)[C@H]([C@H](O)CCN)NC(=O)[C@H]([C@H](O)[C@@H](O)c2ccc(O)cc2)NC(=O)[C@@H]2C[C@@H](O)CN2C(=O)[C@H]([C@@H](C)O)NC1=O [CASPOFUNGIN]	0.25 µg/mL (≈ 0.229 µM)	0.5 µg/mL (≈ 0.457 µM)	4 µg/mL (≈ 3.66 µM)	4 µg/mL (≈ 3.66 µM)	1 µg/mL (≈ 0.915 µM)	0.12 µg/mL (≈ 0.11 µM)	8 µg/mL (≈ 7.32 µM)	0.002331 µg/mL (≈ 0.00213 µM)	0.007652 µg/mL (≈ 0.007 µM)	0.28 nM	338 nM	0.271 nM	241 nM	70.3 nM	0.457 nM	0.2454 µg/mL (≈ 0.224 µM)
OC(Cn1cncn1)(Cn1cncn1)c1ccc(F)cc1F [FLUCONAZOLE]		0.25 µg/mL (≈ 0.816 µM)	8 µg/mL (≈ 26.1 µM)	32 µg/mL (≈ 104 µM)	0.5 µg/mL (≈ 1.63 µM)											
CCC(C)n1ncn(-c2ccc(N3CCN(c4ccc(OCC5COC(Cn6cncn6)(c6ccc(Cl)cc6Cl)O5)cc4)CC3)cc2)c1=O (stereo not drawn) [ITRACONAZOLE]		0.25 µg/mL (≈ 0.354 µM)	0.5 µg/mL (≈ 0.709 µM)	1 µg/mL (≈ 1.42 µM)	0.125 µg/mL (≈ 0.177 µM)											
CCCCCOc1ccc(-c2cc(-c3ccc(C(=O)N[C@H]4C[C@@H](O)[C@@H](O)NC(=O)[C@@H]5[C@@H](O)[C@@H](C)CN5C(=O)[C@H]([C@H](O)CC(N)=O)NC(=O)[C@H]([C@H](O)[C@@H](O)c5ccc(O)c(OS(=O)(=O)O)c5)NC(=O)[C@@H]5C[C@@H](O)CN5C(=O)[C@H]([C@@H](C)O)NC4=O)cc3)no2)cc1 [MICAFUNGIN] (X1-[Orn(4R-OH,5R-OH)]T[Hyp][hTyr(3S-OH,4S-OH,3'-OSO3H)][Gln(3R-OH)][Pro(3S-OH,4S-Me)]; lactam 1-C)	0.06 µg/mL (≈ 0.0472 µM)	0.06 µg/mL (≈ 0.0472 µM)	2 µg/mL (≈ 1.57 µM)	2 µg/mL (≈ 1.57 µM)	0.5 µg/mL (≈ 0.394 µM)	0.03 µg/mL (≈ 0.0236 µM)	4 µg/mL (≈ 3.15 µM)	0.007545 µg/mL (≈ 0.00594 µM)	0.006168 µg/mL (≈ 0.00486 µM)	0.117 nM	228 nM		223 nM	59.6 nM	14.8 nM	1.085 µg/mL (≈ 0.854 µM)
CC[C@@H]([C@H](C)O)n1ncn(-c2ccc(N3CCN(c4ccc(OC[C@@H]5CO[C@@](Cn6cncn6)(c6ccc(F)cc6F)C5)cc4)CC3)cc2)c1=O [POSACONAZOLE]		0.25 µg/mL (≈ 0.357 µM)	0.25 µg/mL (≈ 0.357 µM)	1 µg/mL (≈ 1.43 µM)	0.06 µg/mL (≈ 0.0856 µM)											
C[C@@H](c1ncncc1F)[C@](O)(Cn1cncn1)c1ccc(F)cc1F [VORICONAZOLE]		0.06 µg/mL (≈ 0.172 µM)	1 µg/mL (≈ 2.86 µM)	2 µg/mL (≈ 5.73 µM)	0.03 µg/mL (≈ 0.0859 µM)											
